Laboratory results from patent publication US20230381204A1, “COMPOSITIONS FOR TREATING INFLAMMATIONS, WOUNDS AND SCARRING” (priority 2020, published 2023).

Columns and labels:
[1] = system: TNFα; assay: LPS-induced TNFα secretion in RAW 264.7 cells (ELISA); type: cell-based, Mouse
Procedure: RAW 264.7 cells (170×105 ¢/ml, by counting) were seeded in 96 well plates containing 170 μl/well of complete growth medium (See formulation section). The cells were incubated at 37° C. with 5% CO2 for 24 hr. The medium was aspirated and replaced by LPS-containing medium (25 ng/ml) with or without the Tested Samples at two different concentrations (similarly to what is presented in Table 1). In addition, Naïve cells (Group 1), vehicle treated cells (Group 2), Stimulated Control (Group 3) and Stimulated Vehicle Control (Group 4) served as negative controls. SDS (Group 5) and Dexamethasone (Group 6) served as positive controls for viability and anti-inflammatory assays, respectively. A Blank control group was included in the assay (Group 11), and subtracted from all treatments.
The cells were incubated at 37° C. with 5% CO2 for 24 hr. At the end of incubation, the viability of the cells was measured using the MTT assay, according to SOP. Viability greater than 85% was considered nontoxic. In addition, the spent media from all test groups was collected under standardized conditions and centrifuged at 250×g for 5 min to remove particulates. Clear supernatants were frozen at −70° C. until cytokine analysis. IL-1α, TNFα and IL-6 levels were measured by ELISA, according to manufacturer instructions.
Cell culturing and treatments was performed under sterile conditions. Experiments were carried out in a certified RAW 264.7 cells (Mouse monocyte macrophage) obtained originally from ECACC. The cells were incubated at 37° C. with 5% CO2 for 24 hr. Then, the medium
was aspirated and replaced by LPS-containing medium (25 ng/ml) with or without the Tested Samples. In addition, Naïve cells, vehicle treated cells, Stimulated Control and Stimulated Vehicle Control served as negative controls. Dexamethasone served as positive controls for anti-inflammatory assays. Blank control group was included in the assay, and subtracted from all treatments.
The anti-inflammatory activity of the Tested Samples was examined in the LPS-induced inflammatory model (RAW 264.7 cells) and the secretion of three cytokines was monitored. […] IL-1α, TNFα and IL-6 levels were measured by ELISA, according to manufacturer instructions.
Experiments were carried out in a certified RAW 264.7 cells (Mouse monocyte macrophage) obtained originally from ECACC. RAW 264.7 cells (approx. 2×105 ¢/ml, by counting) were seeded in 96 well plates containing 170 μl/well of complete growth medium. The cells were incubated at 37° C. with 5% CO2 for 24. Next, the medium was aspirated and replaced by LPS-containing medium (25 ng/ml) with or without the Tested Samples.
In addition, Naïve cells, vehicle treated cells, Stimulated Control and Stimulated Vehicle Control served as controls (FIG. 4A). […]

[2] = system: IL-1α; assay: LPS-induced IL-1α secretion in RAW 264.7 cells (ELISA); type: cell-based; settings: Mus musculus, read-out: IL-1 alpha inhibition
Procedure: (§1) RAW 264.7 cells ([…] ¢/ml, by counting) were seeded in 96 well plates containing 170 μl/well of complete growth medium (See formulation section). The cells were incubated at 37° C. with 5% CO2 for 24 hr. The medium was aspirated and replaced by LPS-containing medium (25 ng/ml) with or without the Tested Samples at two different concentrations (similarly to what is presented in Table 1). In addition, Naïve cells (Group 1), vehicle treated cells (Group 2), Stimulated Control (Group 3) and Stimulated Vehicle Control (Group 4) served as negative controls. SDS (Group 5) and Dexamethasone (Group 6) served as positive controls for viability and anti-inflammatory assays, respectively. A Blank control group was included in the assay (Group 11), and subtracted from all treatments.
(§2) The cells were incubated at 37° C. with 5% CO2 for 24 hr. At the end of incubation, the viability of the cells was measured using the MTT assay, according to SOP. […] IL-1α, TNFα and IL-6 levels were measured by ELISA, according to manufacturer instructions. […]
(§3) The anti-inflammatory activity of the Tested Samples was examined in the LPS-induced inflammatory model (RAW 264.7 cells) and the secretion of three cytokines was monitored. Then, the compatibility and possible synergistic action of selected combination was determined. IL-1α, TNFα and IL-6 levels were measured by ELISA, according to manufacturer instructions.

[3] = system: IL-6; assay: LPS-induced IL-6 secretion in RAW 264.7 cells (ELISA); type: cell-based; settings: Mus musculus, RAW264.7, LPS 25 ng/ml, 24 hr
Procedure: as §1, §2, §3

[4] = system: RAW 264.7 cells; assay: MTT cell viability (toxicity evaluation) in RAW 264.7 cells; type: cell-based, Mouse; settings: positive control for viability, 0.1%; 24 hr
Procedure: The assay was performed on 15 Tested Samples in triplicates (the Tested Samples are labeled 1-11 and 13-16). RAW 264.7 cells (1.7×10^5 ¢/ml, by counting) were seeded in 96 well plates containing […] of complete growth medium (see formulation section). The cells were incubated at 37° C. with 5% CO2 for 24 hr. The medium was aspirated and replaced by LPS-containing medium (25 ng/ml) with or without the Tested Samples at four different concentrations, as described below. In addition, Naive cells (Group 1), vehicle treated cells (Group 2), Stimulated Control (Group 3) and Stimulated Vehicle Control (Group 4) served as negative controls. SDS (Group 5) and Dexamethasone (Group 6) served as positive controls for viability and anti-inflammatory assays, respectively. The blank control group was included in the assay (Group 11), and subtracted from all treatments. The cells were incubated at 37° C. with 5% CO2 for 24 hr. At the end of incubation, the viability of the cells was measured using the MTT assay. Viability greater than 85% was considered nontoxic.

Work on `C=C(C)[C@@H]1CCC(C)=C[C@H]1c1c(O)cc(CCCCC)cc1O` [CBD, cannabidiol] yielded an inhibition at 0.1 µg/mL ([1]; Mus musculus, RAW264.7, 0.1 μg/ml alone, LPS 25 ng/ml, 24 hr, read-out: TNF alpha inhibition) of 12.3%, an inhibition at 0.5 µg/mL ([1]; Mus musculus, RAW264.7, 0.5 μg/ml alone, LPS 25 ng/ml, 24 hr, read-out: TNF alpha inhibition) of 22.6% and an inhibition at 0.5 µg/mL ([2]; RAW264.7, 0.5 μg/ml alone, LPS 25 ng/ml, 24 hr) of 7.6%. It also gave an inhibition at 0.1 µg/mL ([3]; 0.1 μg/ml alone) of 8.2% and an inhibition at 0.5 µg/mL ([3]; 0.5 μg/ml alone) of 10.6%.
`CCCCCc1cc(O)c(C/C=C(\C)CCC=C(C)C)c(O)c1` [CBG, cannabigerol] was tested, and the inhibition at 2 µg/mL ([1]; Mus musculus, RAW264.7, 24 h, read-out: TNF alpha inhibition) was 26.8% and the inhibition at 2 µg/mL ([2]; RAW264.7, 24 h) was 12.9%.
For `CCCCCCCCCCCCOS(=O)(=O)[O-].[Na+]` [SDS], the “cell viability (MTT)” value [4] was “toxic and caused a significant reduction in cell viability”.
`NC(=O)NC1NC(=O)NC1=O` (stereo not drawn) [allantoin] was tested, and the TNF alpha inhibition ([1]; 2 μg/ml alone, LPS 25 ng/ml) was “no activity”.
